Assay results published in patent US20080039431A1, “Method of improving plant growth by reducing viral infections” (priority 2006, published 2008).

System: tomato spotted wilt virus (TSWV)
Test: Replicated tomato drench trial (Example 6)
Assay type: in vivo, tomato (Lycopersicon esculentum MILL.)
Settings: prothioconazole 0.0084 g ai/plant, imidacloprid 0.01 g/plant; for Percent control of incidence of TSWV in tomatoes: Abbott's formula; for Percent incidence of TSWV in tomatoes: drench
Method: Cultivation—A replicated trial on tomato (Lycopersicon esculentum MILL.) was initiated in Molino, Fla. to determine if drenches of prothioconazole alone and in combination with the insecticide imidacloprid would suppress TSWV in tomato. Tomato plants, cultivar FL 47 were transplanted on April 11 into 4 rows, each 9.1 meters long, 60 plants per plot, with three replications. Treatments were applied, into a shallow bowl dug at the base of each plant, as a drench in 40 ml water per plant (6 days after transplanting) on April 17. Treatments— • Untreated—no in-furrow treatment • Imidacloprid@0.01 g imidacloprid/plant. • Prothioconazole—prothioconazole@0.0084 g active ingredient/plant. • Prothioconazole+Imidacloprid—prothioconazole@0.0084 g active ingredient/plant+imidacloprid@0.01 g imidacloprid/plant. TSWV rating—University researchers recommend buffers in TSWV testing. Therefore, the center two rows (30 plants) per plot were used for virus ratings with the outer two rows acting as buffers. TSWV incidence determinations were made based on the presence or absence of TSWV symptoms (chlorosis and stunting) per plant. The four treatments were rated at 21, 29, and 39 days after treatment. Synergy formula—The Colby formula for proof of synergy was used in Example 6. The percent incidence values were converted to percent control with Abbotts's formula (1-treated/untreated)*100. Percent control values for solo treatment X and solo treatment Y, were entered into the Colby formula. When the value determined from the plots with both treatment X and Y applied together is greater than the value determined by the Colby formula then synergy is indicated. The formula is: X+Y−(X*Y/100).

Compound: OC(Cc1ccccc1Cl)(Cn1nc[nH]c1=S)C1(Cl)CC1 (stereo not drawn) [Prothioconazole, prothioconazole]
- Percent control of incidence of TSWV in tomatoes (21 days after treatment): 54.79%
- Percent incidence of TSWV in tomatoes (21 days after treatment): 13.2%
- Percent control of incidence of TSWV in tomatoes (29 days after treatment): 28.00%
- Percent incidence of TSWV in tomatoes (29 days after treatment): 48.6%
- Percent control of incidence of TSWV in tomatoes (39 days after treatment): 21.18%
- Percent incidence of TSWV in tomatoes (39 days after treatment): 66.6%
